Results reported in US8394789B2, “(Dihydro)pyrrolo[2,1-α]isoquinolines” (MSD Oss B.V., priority 2008, dated 2013).

molecular target: T1, human FSH receptor (Homo sapiens, UniProt P23945); assay: hFSHRago (CHO luc): agonistic activity at the human FSH receptor expressed in CHO cells, CRE-luciferase reporter; format: cell-based; conditions: CHO cells stably transfected with human FSH receptor and CRE/luciferase reporter; 4 hours of incubation
T1 construct: expressed in transfected cells
T1 sequence (P23945 18-695): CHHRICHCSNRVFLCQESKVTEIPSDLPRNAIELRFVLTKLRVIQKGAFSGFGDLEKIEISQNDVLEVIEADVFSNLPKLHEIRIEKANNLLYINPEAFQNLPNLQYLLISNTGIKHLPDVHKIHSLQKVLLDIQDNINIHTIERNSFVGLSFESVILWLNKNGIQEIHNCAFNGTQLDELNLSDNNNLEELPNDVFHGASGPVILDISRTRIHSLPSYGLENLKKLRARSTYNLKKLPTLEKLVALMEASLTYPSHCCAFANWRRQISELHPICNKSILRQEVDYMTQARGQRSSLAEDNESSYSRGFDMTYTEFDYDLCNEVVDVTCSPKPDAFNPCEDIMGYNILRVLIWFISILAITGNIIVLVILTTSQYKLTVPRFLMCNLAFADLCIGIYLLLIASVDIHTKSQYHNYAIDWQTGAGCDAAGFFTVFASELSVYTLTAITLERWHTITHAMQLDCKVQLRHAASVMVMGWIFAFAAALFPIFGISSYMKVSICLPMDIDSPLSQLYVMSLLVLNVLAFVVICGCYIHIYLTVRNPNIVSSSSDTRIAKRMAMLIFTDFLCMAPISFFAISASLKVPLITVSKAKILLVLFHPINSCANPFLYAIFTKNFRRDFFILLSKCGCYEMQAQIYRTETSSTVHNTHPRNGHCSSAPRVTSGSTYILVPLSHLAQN

| EC50 [nM] | Structure (SMILES) |
| --- | --- |
| 23.9 | COc1cc2c(cc1C(=O)NCCO)-c1c(-c3cccs3)cc(C(=O)N(C)C(C)(C)C)n1CC2 [Example 87, 8-Methoxy-1-thiophen-2-yl-5,6,6a,10a-tetrahydro-pyrrolo[2,1-α]isoquinoline-3,9-dicarboxylic acid 3-(tert-butyl-methyl-amide) 9-[(2-hydroxy-ethyl)-amide]] |
| 310 | CN(C(=O)c1cc(-c2cccs2)c2n1CCc1ccc(N3CCCC3=O)cc1-2)C(C)(C)C [Example 88, 9-(2-Oxo-pyrrolidin-1-yl)-1-thiophen-2-yl-5,6-dihydro-pyrrolo[2,1-α]isoquinoline-3-carboxylic acid tert-butyl-methyl-amide] |
| 245 | CN(C(=O)c1cc(-c2cccs2)c2n1CCc1ccc(N3CCOC3=O)cc1-2)C(C)(C)C [Example 89, 9-(2-Oxo-oxazolidin-3-yl)-1-thiophen-2-yl-5,6-dihydro-pyrrolo[2,1-α]isoquinoline-3-carboxylic acid tert-butyl-methyl-amide] |
| 218 | CN(C(=O)c1cc(-c2cccs2)c2n1CCc1ccc(N3CCNC3=O)cc1-2)C(C)(C)C [Example 90, 9-(2-Oxo-imidazolidin-1-yl)-1-thiophen-2-yl-5,6-dihydro-pyrrolo[2,1-α]isoquinoline-3-carboxylic acid tert-butyl-methyl-amide] |
| 6 | COc1cc2c(cc1C=O)-c1c(-c3cccs3)cc(C(=O)N(C)C(C)(C)C)n1CC2 [Example 91a, 9-Formyl-8-methoxy-1-thiophen-2-yl-5,6-dihydro-pyrrolo[2,1-α]isoquinoline-3-carboxylic acid tert-butyl-methyl-amide] |
| 0.4 | COc1cc2c(cc1CCCO)-c1c(-c3cccs3)cc(C(=O)N(C)C(C)(C)C)n1CC2 [Example 91d, 9-(3-hydroxy-propyl)-8-methoxy-1-thiophen-2-yl-5,6-dihydro-pyrrolo[2,1-α]iso-quinoline-3-carboxylic acid tert-butyl-methyl-amide] |
| 3 | COc1cc2c(cc1C=C(F)F)-c1c(-c3cccs3)cc(C(=O)N(C)C(C)(C)C)n1CC2 [Example 93] |
| 3 | COc1cc2c(cc1[N+](=O)[O-])-c1c(-c3cccs3)cc(C(=O)N(C)C(C)(C)C)n1CC2 [Example 94, 8-Methoxy-9-nitro-1-thiophen-2-yl-5,6-dihydro-pyrrolo[2,1-α]isoquinoline-3-carboxylic acid tert-butyl-methyl-amide] |
| 44.8 | COc1cc2c(cc1N)-c1c(-c3cccs3)cc(C(=O)N(C)C(C)(C)C)n1CC2 [Example 95, 9-Amino-8-methoxy-1-thiophen-2-yl-5,6-dihydro-pyrrolo[2,1-α]isoquinoline-3-carboxylic acid tert-butyl-methyl-amide] |
| 2.8 | COc1cc2c(cc1NC(=O)CN(C)C)-c1c(-c3cccs3)cc(C(=O)N(C)C(C)(C)C)n1CC2 [Example 96, 9-(2-Dimethylamino-acetylamino)-8-methoxy-1-thiophen-2-yl-5,6,6 a,10a-tetrahydro-pyrrolo[2,1-α]isoquinoline-3-carboxylic acid tert-butyl-methyl-amide] |
| 4 | COc1cc2c(cc1NC(=O)CN1CCC1)-c1c(-c3cccs3)cc(C(=O)N(C)C(C)(C)C)n1CC2 [Example 97, 9-(2-Azetidin-1-yl-acetylamino)-8-methoxy-1-thiophen-2-yl-5,6-dihydro-pyrrolo[2,1-α]isoquinoline-3-carboxylic acid tert-butyl-methyl-amide] |
| 1.4 | COCC(=O)Nc1cc2c(cc1OC)CCn1c(C(=O)N(C)C(C)(C)C)cc(-c3cccs3)c1-2 [Example 98, 8-Methoxy-9-(2-methoxy-acetylamino)-1-thiophen-2-yl-5,6-dihydro-pyrrolo[2,1-α]isoquinoline-3-carboxylic acid tert-butyl-methyl-amide] |
| 22 | CCOC(=O)Nc1cc2c(cc1OC)CCn1c(C(=O)N3CCCC3(C)C)cc(-c3cccs3)c1-2 [Example 99, [3-(2,2-Dimethyl-pyrrolidine-1-carbonyl)-8-methoxy-1-thiophen-2-yl-5,6-dihydro-pyrrolo[2,1-α]isoquinolin-9-yl]-carbamic acid ethyl ester] |
